# Measured values published in patent US11279733B2, “Peptide antibiotics” (priority 2017, dated 2022).
# Read-outs that look alike come from different tables or passages of the source. Positions of bridges follow the written chain, without caps; N, C: chain ends. Non-standard residues stand in square brackets, D forms with d. Residues, ends and D or L forms follow the SMILES beside them. *: point of attachment. Isonicotinoyl(2-Ph) = O=C(c1ccnc(-c2ccccc2)c1)*; Decanoyl(3R-OH) = CCCCCCC[C@@H](O)CC(=O)*; Butanoyl(4-OPh) = O=C(CCCOc1ccccc1)*; X1 = CCCCCCCN1CCC(C(=O)*)CC1; dDab = NCC[C@@H](N)C(=O)O; Dab = NCC[C@H](N)C(=O)O; X5 = O=C(CCCCCCCO)*
# How the values were obtained:
# in vitro [1] = settings: human
# Outline: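 HK2 cells were seeded at 2000 per well in DMEM/F12 with 10% FBS and left to attach for 24 h at 37 °C, 5% CO2. They were then exposed for 24 h to 3-fold peptide dilutions starting from 600 μM solutions in quadruplicate. LDH release was read at 450 nm, and CC50 was fitted from dose-response curves.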
# in vitro [2] = settings: human; remark: listed apart in the source
# Outline: (§1)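 Fluorescence read-out (excitation 560, emission 590) after a 2 h, 37 °C incubation with 5 μM resazurin, following 24 h compound treatment of cells plated at 4000 per well. CC50 values come from fitting dose–response curves of growth inhibition.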
# in vitro [3] = settings: human; remark: listed apart in the source
# Outline: as §1
# P. aeruginosa ATCC 27853 = settings: ATCC 27853
# Outline: (§2)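 Mid-log cultures grown in Mueller Hinton broth at 37° C were tested by 2-fold broth microdilution at 5×10^5 CFU/mL final. Compounds were dissolved in water and tested over a final range of 32 to 0.015 μg/mL.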
# A. baumannii GN_093 PmxR = settings: GN 093 PmxR
# Outline: as §2
# E. coli ATCC 25922 = settings: ATCC 25922
# Outline: as §2
# [4] = system: S. aureus ATCC 25923, MSSA; settings: ATCC 25923
# Outline: as §2
# [5] = system: P. aeruginosa GN_105, PmxR; settings: GN 105, PmxR
# Outline: as §2
# [6] = system: K. pneumoniae GN_102 PmxR; settings: GN 102 PmxR
# Outline: as §2
# [7] = system: K. pneumoniae ATCC 700603, MDR; settings: ATCC 700603
# Outline: as §2
# A. baumannii ATCC 19606 = settings: ATCC 19606
# Outline: as §2
# [8] = system: K. pneumoniae ATCC BAA-2146, NDM-1 pos; settings: ATCC BAA-2146
# Outline: as §2
# [9] = system: P. aeruginosa GN_043, PmxR
# Outline: as §2
# K. pneumoniae ATCC 13883 = settings: ATCC 13883
# Outline: as §2
# [10] = system: K. pneumoniae GN_106, PmxR; settings: GN 106, PmxR
# Outline: as §2
Structure (SMILES),CC50 at 24 h (in vitro [1]),CC50 at 24 h (in vitro [2]),CC50 at 24 h (in vitro [3]),MIC P. aeruginosa ATCC 27853 (P. aeruginosa ATCC 27853),MIC A. baumannii GN_093 PmxR (A. baumannii GN_093 PmxR),MIC E. coli ATCC 25922 (E. coli ATCC 25922),"MIC S. aureus ATCC 25923, MSSA [4]","MIC P. aeruginosa GN_105, PmxR [5]",MIC K. pneumoniae GN_102 PmxR [6],"MIC K. pneumoniae ATCC 700603, MDR [7]",MIC A. baumannii ATCC 19606 (A. baumannii ATCC 19606),"MIC K. pneumoniae ATCC BAA-2146, NDM-1 pos [8]","MIC P. aeruginosa GN_043, PmxR ([9]; P. aeruginosa GN_043, PmxR)",MIC K. pneumoniae ATCC 13883 (K. pneumoniae ATCC 13883),"MIC K. pneumoniae GN_106, PmxR [10]","MIC P. aeruginosa GN_043, PmxR [9]","MIC P. aeruginosa GN_043, PmxR ([9]; polymyxin-resistant)"
"CC(C)C[C@@H]1NC(=O)[C@H](CCN)NC(=O)[C@H](CCN)NC(=O)[C@H](Cc2ccccc2)NC(=O)[C@@H](CC(C)C)NC(=O)[C@H](CCN)NC(=O)[C@@H](NC(=O)[C@@H](CCN)NC(=O)CCCOc2ccccc2)CCNC1=O [compound 6521, 4-phenoxybutanoic acid-D-Dab-cyc[L-Dab-L-Dab-D-Leu-L-Phe-L-Dab-L-Dab-L-Leu]] ({Butanoyl(4-OPh)}-[dDab][Dab][Dab][dL]F[Dab][Dab]L; lactam 2-C)",290 µM,> 300 µM,> 300 µM,2 µg/mL,>32 µg/mL,8 µg/mL,>32 µg/mL,16 µg/mL,16 µg/mL,16 µg/mL,>32 µg/mL,16 µg/mL,2 µg/mL,32 µg/mL,32 µg/mL,,
"CC(C)C[C@@H]1NC(=O)[C@H](CCN)NC(=O)[C@H](CCN)NC(=O)[C@H](CC(C)C)NC(=O)[C@@H](Cc2ccccc2)NC(=O)[C@H](CCN)NC(=O)[C@@H](NC(=O)[C@@H](CCN)NC(=O)CCCCCCCO)CCNC1=O [compound 6522, 8OH-nC7CO-D-Dab-cyc[L-Dab-L-Dab-D-Phe-L-Leu-L-Dab-L-Dab-L-Leu]] (X5-[dDab][Dab][Dab][dF]L[Dab][Dab]L; lactam 2-C)",208 µM,> 300 µM,> 300 µM,2 µg/mL,>32 µg/mL,>32 µg/mL,>32 µg/mL,>32 µg/mL,>32 µg/mL,>32 µg/mL,>32 µg/mL,>32 µg/mL,,>32 µg/mL,>32 µg/mL,2 µg/mL,
"CCCCCCCN1CCC(C(=O)N[C@H](CCN)C(=O)N[C@H]2CCNC(=O)[C@H](CC(C)C)NC(=O)[C@H](CCN)NC(=O)[C@H](CCN)NC(=O)[C@H](CC(C)C)NC(=O)[C@@H](Cc3ccccc3)NC(=O)[C@H](CCN)NC2=O)CC1 [compound 6524, 1-heptylpiperidine-4-carboxylic acid-D-Dab-cyc[L-Dab-L-Dab-D-Phe-L-Leu-L-Dab-L-Dab-L-Leu]] (X1-[dDab][Dab][Dab][dF]L[Dab][Dab]L; lactam 2-C)",106 µM,> 300 µM,> 300 µM,1 µg/mL,>32 µg/mL,32 µg/mL,32 µg/mL,2 µg/mL,>32 µg/mL,>32 µg/mL,>32 µg/mL,32 µg/mL,,>32 µg/mL,32 µg/mL,0.5 µg/mL,
"CC(C)C[C@@H]1NC(=O)[C@H](CCN)NC(=O)[C@H](CCN)NC(=O)[C@H](CC(C)C)NC(=O)[C@@H](Cc2ccccc2)NC(=O)[C@H](CCN)NC(=O)[C@@H](NC(=O)[C@@H](CCN)NC(=O)c2ccnc(-c3ccccc3)c2)CCNC1=O [compound 6525, 3Phe4-PyCO-D-Dab-cyc[L-Dab-L-Dab-D-Phe-L-Leu-L-Dab-L-Dab-L-Leu]] ({Isonicotinoyl(2-Ph)}-[dDab][Dab][Dab][dF]L[Dab][Dab]L; lactam 2-C)",> 300 µM,> 300 µM,> 300 µM,4 µg/mL,>32 µg/mL,4 µg/mL,>32 µg/mL,8 µg/mL,16 µg/mL,8 µg/mL,>32 µg/mL,16 µg/mL,,16 µg/mL,>32 µg/mL,2 µg/mL,
"CC(C)C[C@@H]1NC(=O)[C@H](CCN)NC(=O)[C@H](CCN)NC(=O)[C@H](CC(C)C)NC(=O)[C@@H](Cc2ccccc2)NC(=O)[C@H](CCN)NC(=O)[C@@H](NC(=O)[C@@H](CCN)NC(=O)CCCOc2ccccc2)CCNC1=O [compound 6529, 4-phenoxybutanoic acid-D-Dab-cyc[L-Dab-L-Dab-D-Phe-L-Leu-L-Dab-L-Dab-L-Leu]] ({Butanoyl(4-OPh)}-[dDab][Dab][Dab][dF]L[Dab][Dab]L; lactam 2-C)",199 µM,> 300 µM,> 300 µM,2 µg/mL,>32 µg/mL,8 µg/mL,>32 µg/mL,16 µg/mL,>32 µg/mL,32 µg/mL,>32 µg/mL,32 µg/mL,,16 µg/mL,>32 µg/mL,1 µg/mL,
"CCCCCCC[C@@H](O)CC(=O)N[C@H](CCN)C(=O)N[C@H]1CCNC(=O)[C@H](CC(C)C)NC(=O)[C@H](CCNC(=O)[C@@H](N)CCCNC(=N)N)NC(=O)[C@H](CCN)NC(=O)[C@H](CC(C)C)NC(=O)[C@@H](Cc2ccccc2)NC(=O)[C@H](CCN)NC1=O [compound 6653, 3(R)OH-nC9CO-D-Dab-cyc[L-Dab-L-Dab-D-Phe-L-Leu-L-Dab-L-Dab(L-Arg)-L-Leu]] ({Decanoyl(3R-OH)}-[dDab][Dab][Dab][dF]L[Dab][Dab](Arg)L; lactam 2-C)",64 µM,> 300 µM,> 300 µM,4 µg/mL,16 µg/mL,16 µg/mL,32 µg/mL,4 µg/mL,>32 µg/mL,8 µg/mL,4 µg/mL,8 µg/mL,,8 µg/mL,16 µg/mL,,2 µg/mL
